Assay results as given in US11083732B2, “Use of negative modulators of GABA receptors containing alpha5 subunits as fast acting antidepressants” (University of Maryland, Baltimore, priority 2014, dated 2021).
Entries after “also recorded” stand apart in the source; their conditions may differ.

Assays:
[1] = system: rats subjected to chronic unpredictable stress; test: Social interaction test (SIT) after chronic unpredictable stress (CUS); type: in vivo, rat
Protocol: (§1) Chronic unpredictable stress (CUS). Male Sprague-Dawley rats (4-5 weeks-old; Harlan Laboratories) were randomly divided into control and CUS groups. Rats in the CUS group were individually housed. CUS animals were treated with two mild stressors every day for 5-6 weeks during their light phase (Willner et al., 1987). The stressors were randomly cycled to enhance unpredictability. The stressors were: forced swim, in which rats were placed in a basin containing cold water for 5 minutes; strobe lighting, in otherwise total darkness for 30 minutes; restraint, during which rats were put into appropriately sized restraint tubes for 30 minutes; exposure to white noise for 30 minutes; and food or water deprivation for 14 hours spanning the dark phase.
Social interaction test (SIT). […]
Each test consisted of a “target-absent” trial followed by a “target-present” trial. During testing, an individual test rat was placed in the center of the arena and, after 30s of adaptation, the rat's movements were recorded with the video camera for 2.5 minutes. […]
Results were quantified as the percentage of time spent in the “interaction zone” (the five grid squares immediately surrounding the plastic cage) as measured for both the “target-absent” and “target-present” trials. […]

[2] = system: rats subjected to chronic unpredictable stress; test: Sucrose preference test (SPT) after chronic unpredictable stress (CUS); type: in vivo, rat; details: L-655,708 24 hours earlier
Protocol: Sucrose preference test. Rats are administered a sucrose preference test before chronic unpredictable stress or no stress. The left bar of the pairs (black) reflects CUS rats and the right bar of the pairs (white) reflects unstressed rats.
as §1
Sucrose preference test (SPT). Rats were given a choice between two bottles containing tap water or a 1% sucrose solution (Rygula et al., 2006). Testing was conducted overnight (16 hours), including the full duration of their dark phase. […] Sucrose preference was calculated as amount of the sucrose solution consumed as a percentage of the total amount of liquid consumed.

[3] = system: GluA1; test: Western blotting of GluA1 in SLM tissue of hippocampal area CA1; type: in vivo, rat
Text: Western blotting. SLM tissue punches (1 mm diameter) were dissected from area CA1 in hippocampal slices and pooled (3-4 punches/sample). Membranes were probed with antibodies directed against GluA1 (Millipore Bioscience Research Reagents) and β-actin (Cell Signaling Technology). Levels of proteins are expressed as the ratio of intensity normalized to β-actin intensity, as done previously (Kallarackal et al., 2013).
SLM tissue was harvested from slices taken from unstressed rats, rats subjected to ten days of CRS and given a vehicle injection 24 hrs earlier, and rats subjected to ten days of CRS and given an injection of L-655,708 24 hrs earlier (0.7 mg/kg, i.p.). These were the same rats used for FIG. 6.

[4] = system: rats; test: Open field test (anxiety); details: rat, in vivo
Text: C1. One cohort of control rats are given a baseline open field test. One week later, half of the animals receive an injection of L-665,708 or vehicle, followed 24 hrs later by a second open field test in a new arena.

CCOC(=O)c1ncn2c1[C@@H]1CCCN1C(=O)c1cc(OC)ccc1-2 [L-655,708, ethyl (13aS)-7-methoxy-9-oxo-11, 12,13,13 a-terahydro-9H-imidazo[1,5-a]pyrrolo[2,1-c] [1,4]benzodiazepine-1-carboxylate]
number of CUS rats in which social interaction was reversed ([1]; CUS 4 weeks plus one week, L-655,708 0.7 mg/kg i.p. 24 hrs earlier): 14 of 18
social interaction ([1]; CUS rats, single injection of L-655,708 0.7 mg/kg i.p. 24 hrs earlier): restores the behavior; also recorded: reversed to levels that were not significantly different than pre-stress baseline
sucrose preference [2]: restores the behavior; also recorded: restored sucrose preference
phosphorylation of S831 of GluA1 in SLM ([3]; CRS rats, 24 hours after injection): increased
GluA1 protein level in SLM (normalized to β-actin) ([3]; CRS rats, L-655,708 24 hrs earlier): not significantly different than levels in unstressed controls; also recorded: increased
phosphorylation of S831 and total GluA1 expression in SLM ([3]; unstressed animals, 24 hours after injection): no effect
anxiety in the open field test [4]: no evidence of increased anxiety
